# From patent US4389412A, “Substituted cyclopropanecarboxylic acid esters and pesticidal compositions containing the same as active ingredient” (priority 1979, dated 1983)
# Where two headings read alike, the source gives them in different places.
# Experiments:
# [1] = test system: rice stem borers (Chilo suppressalis Walker); test: Mortality test with rice stem borers by topical application method; assay type: in vivo; conditions: for mortality at 0.001 mg: read-out: Pesticidal effect, rice stem borer
# Method: Mortality test with rice stem borers (Chilo suppressalis Walker) by topical application method
# Using a microsyringe, 0.5 μl of the above solution was applied to the thoracic abdominal region of each final-instar larva of rice stem borer (Chilo suppressalis Walker). […] The test larvae were used in groups of 20 individuals each.
# [2] = test system: tobacco cutworms (Prodenia litura Fabricius); test: Mortality test with tobacco cutworms by topical application method; assay type: in vivo
# Method: Mortality test with tobacco cutworms (Prodenia litura Fabricius) by topical application method
# Using a microsyringe, 0.5 μl of the above solution was dripped onto the thoracic adbominal region of each of 3-instar tobacco cutworm (Prodenia litura Fabricius) larvae. […] The test larvae were used in groups of 20 individuals each.
# [3] = test system: houseflies (Musca domestica); test: Mortality test with houseflies by topical application method; conditions: 24 h; for mortality at 0.001 mg: read-out: Pesticidal effect, housefly
# Method: Mortality test with houseflies (Musca domestica) by topical application method
# Each of the compounds according to this invention and the control compounds (Table 2) was accurately weighted and a 0.1% solution of each sample in acetone was prepared. Female adult houseflies (Musca domestica) resistant to organophosphorus pesticides, were anesthetized with ether and 0.5 μl or 1.0 μl of the above solution was micropipetted onto the prothoracic dorsal region of each insect. The insects were then put in a high-walled dish together with feed and the dish was covered with a wire-mesh cover and kept at a temperature of 25° C. The test insects were used in groups of 30 individuals each. After 24 hours the insects were examined for deaths and the percent mortality was calculated.
# [4] = test system: green rice leafhoppers (Nephotettix cincticeps Uhler); test: Mortality test with green rice leafhoppers by topical application method; conditions: for LD50 / mortality at 0.01 µg/female / mortality at 0.1 µg/female / mortality at 1 µg/female / mortality at 10 ng: Nephotettix cincticeps, in Oryza sativa, 24 h; for LD50: read-out: LD50 (median lethal dose), topical, green rice leafhoppers; for mortality at 10 ng: read-out: Pesticidal effect, green rice leafhopper
# Method: Mortality test with green rice leafhoppers (Nephotettix cincticeps Uhler) by topical application method
# Then, the insects were kept at 25° C. with access to rice plant seedlings. The insects were used in groups of 15 individuals each.
# [5] = Fish toxicity test with guppies; assay type: in vivo, Lebistes reticulatus; conditions: guppy, water, guppies, 20° C., read-out: TLm (48 hrs.)
# Method: (§1) Fish toxicity test with guppies (Lebistes reticulatus)
# (§2) To 5 liters of water were added 250 mg of Sorpol SM-200 (trademark, Toho Chemical Co., Ltd.) as a surfactant and 2.5 ml of an acetone solution containing one of the test compounds in a predetermined concentration. The mixture was stirred thoroughly to prepare a test water. Ten female guppies (Lebistes reticulatus) of from 3 to 4 months of age were released into the test water which was maintained at 20° C. and the TLm (median tolerance limit, ppm) was determined.
# [6] = test system: guppies (Lebistes reticulatus); test: Fish toxicity test with guppies; assay type: in vivo; conditions: Table 1; 48 hrs.
# Method: as §1, §2
# [7] = test system: tobacco cutworm (Prodenia litura); test: Utility Example-5: spray on soy bean leaves, tobacco cutworm larvae; assay type: in vivo; conditions: 48 h, 2 days
# Method: An acetone solution of one of the test compounds as mentioned in Table 13 and Tween-20 (the same surfactant as mentioned hereinbefore) was prepared. This acetone solution was diluted with water to prepare a solution containing the test compound in a predetermined concentration. Leaves of soy bean in pots were sprayed with the above diluted solution at the rate of 20 ml/pot and, after one day, ten 3-instar larvae of tobacco cutworm (Prodenia litura) were released on the leaves. The pots were kept in a constant-temperature chamber at 25° C.
# carp and water flea = test: Fish toxicity ranking according to Japanese regulations; design: species or system Cyprinus carpio L; Daphnia pulex; conditions: from TLm for carp and water flea
# Method: The above ranking with symbols A, B and C were determined according to Japanese regulations relative to application of agricultural chemicals, and these symbols are defined as follows: […]
# A: TLm (48 hrs.) value >10 ppm for carp and TLm (3 hrs.) value >0.5 ppm for water flea, wherein toxicity to fishes is not observed by usual application.
# B: TLm (48 hrs.) value 10-0.5 ppm for carp; or TLm (48 hrs.) value >10 ppm for carp and TLm (3 hrs.) value <0.5 ppm for water flea, wherein appreciable toxicity to fishes is not observed by usual application but may be observed when applied to wide area at one time.
# C: TLm (48 hrs.) value <0.5 ppm for carp, wherein toxicity to fishes is so strongly observed by usual application that both the application method and application area are strictly restricted.
# [8] = Fish toxicity test with carp; assay type: in vivo, Cyprinus carpio L; conditions: carp, water, 48 hrs., 21±1° C.; read-out: TLm, Carp (48 hrs.)
# Method: Fish toxicity test with carp (Cyprinus carpio L)
# An acetone solution of one of the test compounds as mentioned in Table 10 and Tween-20 (the same surfactant as mentioned hereinbefore) was prepared. To 50 liters of water (30 cm deep) in a glass tank was added the above acetone solution. The mixture was stirred thoroughly to prepare an aqueous solution containing the test compound in a predetermined concentration. This was used as a test water. Five carps (Cyprinus carpio L) with a body weight of about 6 g and a body length of about 6 cm were released into each test water which was maintained at 21±1° C. After 48 hours, the test fish was examined for death. The TLm (median tolerance limit, ppm) was determined. The test water was moderately aerated.
# [9] = test system: brown planthoppers (Nilaparvata lugens Stal); test: Utility Example-1: LC50 on adult brown planthoppers on dipped rice plants; assay type: in vivo; conditions: Nilaparvata lugens, 24 h, 25° C., read-out: Pesticidal activity LC50
# Method: A 1% emulsifiable concentrate of each test compound as prepared by the procedure described in Formulation Example 2 was diluted with water to prepare a test solution of predetermined concentration.
# Rice plants, 4 weeks after sowing (cultivated in a pot 6 cm in diameter, 7 seedlings) were dipped in the above solution and after allowing them to dry in the air, the pot was covered with a wire-mesh cage. Then, 30 adult brown planthoppers (Nilaparvata lugens Stal) were released into the cage and the pot was kept in a constant-temperature chamber at 25° C.
# [10] = Fish toxicity safety factor (TLm divided by maximum concentration in cover water); design: species or system carp; conditions: in vivo, TLm / maximum concentration in cover water at LC50 application (100 l per 10 ares, 5 cm depth)
# Method: To further confirm the low toxicity to fish and high pesticidal activity of Compounds (1) and (2) according to this invention as evidenced by the fish toxicity tests with carps and the above tests, fish toxicity safety factors were calculated from the fish toxicity and pesticidal test data. These fish toxicity safety factors are indicators of safety to fish inhabiting a paddy field to which Compounds (1) and (2) may be actually applied for pest control purposes.
# It is first assumed that such a pesticidal solution would normally be applied at the rate of 100 l per 10 ares of paddy field. It is also assumed that a solution (100 l) corresponding to the LC50 of the compounds would be applied to 10 ares of a paddy field carrying a cover water with a depth of 5 cm above ground surface and that all the solution would then find its way into the cover water. The expected maximum concentration of the compound in the cover water is then calculated. The fish toxicity safety factor of a pesticidal compound is defined as the value obtained by dividing the TLm (ppm) of the particular compound by the maximum concentration of the compound in cover water. The meaning of the value of the fish toxicity safety factor being one (1) is that the maximum concentration of the particular compound in cover water corresponds to the TLm of said compound. It is understood that when the pesticidal compound having a fish toxicity safety factor value of less than one (1) is applied to a paddy field, it has a risk of destroying the fish inhabiting there, and that the higher the safety factor value, the higher is the safety of the compound to fish.
# This fish toxicity safety factor will now be explained in further detailed by taking the trans-isomer of Compound (2) of this invention as an example.
# On the other hand, the toxicity to fish of this compound is TLm >10 ppm. Therefore, by dividing the TLm (i.e. >10 ppm) by the above cover water maximum concentration (i.e. 0.36 ppm), we obtain a fish toxicity safety factor of >28. Thus, the concentration of the trans-isomerof Compound (2) which kills 50% of pests corresponds to less than 1/28 of the concentration of the same isomer which kills 50% of fish. In other words, this means that the trans-isomer of Compound (2) is extremely safe to fish.
# [11] = 1.0 μg/Larva, final-instar larva, 24 hours, read-out: % Mortality
# [12] = 10 μg/Larva, final-instar larva, 24 hours, read-out: % Mortality
# [13] = 0.1 μg/Larva, 3-instar larvae, 24 hours, read-out: % Mortality
# [14] = 24 h, read-out: Pesticidal effect, tobacco cutworm
structure (smiles),measurement,setting,value
CC(C)C(C(=O)OCc1cccc(Oc2ccc(Cl)cc2)c1)c1ccc(Cl)cc1 (stereo not drawn) [Compound (J)],mortality at 1 µg/larva,[1]; [11],15%
same,mortality at 10 µg/larva,[1]; [12],90%
same,mortality at 0.0001 mg,[2]; [13],0%
CC1(C)C(C=C(Cl)Cl)C1C(=O)OC(C#N)c1cccc(Oc2cc(Cl)cc(Cl)c2)c1 (stereo not drawn),mortality at 0.5 µg/female,[3],0%
same,mortality at 1 µg/female,[3],27%
"CCC(C)c1ccccc1OC(=O)NC (stereo not drawn) [Bassa, o-sec-butylphenyl methylcarbamate]",LD50,[4],93.8 mg/kg
C#CC(OC(=O)C1C(C=C(Cl)Cl)C1(C)C)c1cccc(Oc2ccccc2)c1 (stereo not drawn) [Compound (F)],mortality at 0.5 µg/female,[3],100%
same,mortality at 1 µg/female,[3],100%
same,mortality at 0.001 mg,[3],100%
same,LC50 at 48 h,[5],< 0.5 mg/L
same,"Toxicity to fish TLm, guppy",[6],< 0.5 ppm
same,mortality at 0.01 µg/female,[4],100%
same,mortality at 0.1 µg/female,[4],100%
same,mortality at 1 µg/female,[4],100%
same,mortality at 10 ng,[4],100%
CC1(C)C(C=C(Cl)Cl)C1C(=O)OCc1cccc(Oc2ccc(Cl)c(Cl)c2)c1 (stereo not drawn),mortality at 0.5 µg/female,[3],0%
same,mortality at 1 µg/female,[3],20%
C#CC(OC(=O)C1C(C=C(Cl)Cl)C1(C)C)c1cccc(Oc2ccc(Br)cc2)c1 (stereo not drawn),mortality at 6.5 ppm,[7],0%
same,mortality at 13 ppm,[7],90%
CC1(C)C(C=C(Cl)Cl)C1C(=O)OCc1cccc(Oc2ccc(Cl)cc2)c1 (stereo not drawn) [Compound (1) cis-/trans- = 30:70],LD50 (median lethal dose),"[4]; green rice leafhoppers, 1440 min",0.85 µg/g
"CCOC(=O)CC(SP(=S)(OC)OC)C(=O)OCC (stereo not drawn) [Malathion, malathion]",LD50,[4],565 mg/kg
CC1(C)C(C=C(Cl)Cl)C1C(=O)OCc1cccc(Oc2cccc(Cl)c2)c1 (stereo not drawn),mortality at 0.5 µg/female,[3],60%
same,mortality at 1 µg/female,[3],93%
"CCOP(=S)(OCC)Oc1cc(C)nc(C(C)C)n1 [Diazinon, diazinon]",LD50,[4],72.2 mg/kg
CC1(C)C(C=C(Cl)Cl)C1C(=O)OC(C#N)c1cccc(Oc2ccc(Br)cc2)c1 (stereo not drawn) [Compound (H)],mortality at 0.5 µg/female,[3],100%
same,mortality at 1 µg/female,[3],100%
same,mortality at 0.001 mg,[3],100%
same,mortality at 1 µg/larva,[1]; 24 h,90%
same,mortality at 10 µg/larva,[1]; 24 h,100%
same,mortality at 0.001 mg,[1]; 24 h,90%
same,Ranking,carp and water flea,"C (TLm (48 hrs.) value <0.5 ppm for carp, wherein toxicity to fishes is so strongly observed by usual application that both the application method and application area are strictly restricted.)"
same,LC50 at 48 h,[8],0.063 mg/L
same,mortality at 6.5 ppm,[7],40%
same,mortality at 13 ppm,[7],100%
same,mortality at 0.01 µg/female,[4],100%
same,mortality at 0.1 µg/female,[4],100%
same,mortality at 1 µg/female,[4],100%
same,mortality at 10 ng,[4],100%
same,mortality at 0.0001 mg,[2]; 24 h,60%
same,mortality at 0.0001 mg,[2]; [14],60%
CC1(C)C(C=C(Cl)Cl)C1C(=O)OCc1cccc(Oc2ccc(Br)cc2)c1 (stereo not drawn),mortality at 6.5 ppm,[7],10%
same,mortality at 13 ppm,[7],100%
C#CC(OC(=O)C(c1ccc(Cl)cc1)C(C)C)c1cccc(Oc2ccc(Cl)cc2)c1 (stereo not drawn) [Compound (K)],mortality at 0.01 µg/female,[4],33%
same,mortality at 0.1 µg/female,[4],100%
same,mortality at 1 µg/female,[4],100%
same,mortality at 0.0001 mg,[2]; [13],0%
"COP(=S)(OC)Oc1ccc([N+](=O)[O-])c(C)c1 [Fenitrothion, fenitrothion]",LD50,[4],4050 mg/kg
Cc1ccc(Oc2cccc(COC(=O)C3C(C=C(Cl)Cl)C3(C)C)c2)cc1 (stereo not drawn),mortality at 0.5 µg/female,[3],80%
same,mortality at 1 µg/female,[3],100%
Cc1cccc(Oc2cccc(COC(=O)C3C(C=C(Cl)Cl)C3(C)C)c2)c1 (stereo not drawn),mortality at 0.5 µg/female,[3],50%
same,mortality at 1 µg/female,[3],80%
"CC(C)=CC1C(C(=O)OCc2cccc(Oc3ccccc3)c2)C1(C)C (stereo not drawn) [Compound (A), Phenothrin]",mortality at 0.5 µg/female,[3],97%
same,mortality at 1 µg/female,[3],100%
same,mortality at 0.001 mg,[3],100%
same,mortality at 1 µg/larva,[1]; 24 h,45%
same,mortality at 10 µg/larva,[1]; 24 h,100%
same,mortality at 0.001 mg,[1]; 24 h,45%
same,mortality at 0.01 µg/female,[4],80%
same,mortality at 0.1 µg/female,[4],100%
same,mortality at 1 µg/female,[4],100%
same,LD50,[4],1.22 mg/kg
same,mortality at 10 ng,[4],80%
same,mortality at 0.0001 mg,[2]; 24 h,35%
same,mortality at 0.0001 mg,[2]; [14],35%
Cc1ccc(Oc2cccc(C(C#N)OC(=O)C3C(C=C(Cl)Cl)C3(C)C)c2)cc1C (stereo not drawn),mortality at 0.5 µg/female,[3],40%
same,mortality at 1 µg/female,[3],80%
CC1(C)C(C=C(Cl)Cl)C1C(=O)OCc1cccc(Oc2ccccc2Cl)c1 (stereo not drawn),mortality at 0.5 µg/female,[3],30%
same,mortality at 1 µg/female,[3],60%
CC(C)C(C(=O)OC(C#N)c1cccc(Oc2ccc(Cl)cc2)c1)c1ccc(Cl)cc1 (stereo not drawn) [Compound (L)],LC50,[9],2260 mg/L
same,mortality at 1 µg/larva,[1]; [11],85%
same,mortality at 10 µg/larva,[1]; [12],100%
same,Ranking,carp and water flea,"C (TLm (48 hrs.) value <0.5 ppm for carp, wherein toxicity to fishes is so strongly observed by usual application that both the application method and application area are strictly restricted.)"
same,selectivity ratio,[10],0.0071
same,LC50 at 48 h,[8],0.032 mg/L
same,mortality at 0.0001 mg,[2]; [13],35%
